Measured values reported in a melting point compilation (Tetko et al.; mined from patent text by program, amines drawn as free bases though some values may be those of a salt).

Compared with `CC(=O)Nc1nc2c(Oc3cc(-c4ccc(C(F)(F)F)cc4NC(=O)OC(C)(C)C)ncn3)cccc2s1`, `CC(C)(C)OC(=O)N1CCC(c2cnc3oc(-c4ccc(C(F)(F)F)cc4)nc3c2)CC1` is lower in melting point: 194 to 195 °C for the first, 184 to 188 °C for the second.

First: CC(C)(C)NS(=O)(=O)c1csc2ccccc12
Second: CS(=O)(=O)Nc1cc(C(=O)c2ccccc2)ccc1N
The melting point of the first is lower: 146 to 148 °C for the first, 184 to 186 °C for the second.

First: O=C(Cl)COc1ccc([N+](=O)[O-])cc1
Second: CNC(=O)C1=CC(C)(C)Oc2ccc([N+](=O)[O-])cc21
The melting point of the first is lower: 84 to 85 °C for the first, 166 to 168 °C for the second.

First: OC1CSC(Oc2cc(F)cnc2Cl)C(O)C1O (configuration not stated)
Second: COc1ccc(-c2cccc(OC3SCC(OC(C)=O)C(OC(C)=O)C3OC(C)=O)c2)cn1 (configuration not stated)
The melting point of the first is higher: 143 °C for the first, 132 °C for the second.

First: CC(=O)Oc1cn(C(C)=O)c2ccc(F)c(Cl)c12
Second: Cc1cc(C#N)cc(C(=O)Nc2ccc(Cl)cn2)n1
The melting point of the first is lower: 168 to 169 °C for the first, 234 °C for the second.

First: Brc1ccc2c(c1)CC(N1CCNCC1)c1ccccc1S2 (configuration not stated)
Second: CSC1=Nc2ccccc2N2CCN(c3ccccc3)CCN12
The melting point of the first is lower: 112 to 115 °C for the first, 125 to 127 °C for the second.

First: CCC(=O)c1ccc(-c2ccccc2)cc1
Second: NC(C(=O)O)c1ccc(C(=O)O)cc1-c1ccccc1 (configuration not stated)
The melting point of the first is lower: 98 to 99 °C for the first, 238 to 240 °C for the second.

First: O=C1c2ccccc2OCN1CCCl
Second: C=CCN1C(=O)c2cscc2Nc2ccccc21
The melting point of the first is lower: 45 °C for the first, 105 to 106 °C for the second.

Compared with `NC(C(=O)O)c1ccc(C(=O)O)cc1N1CCCC1` (configuration not stated), `O=C(O)c1ccc2c(c1)C=C(n1ccnc1)CC2` is higher in melting point: 187 to 190 °C for the first, 323 to 326 °C for the second.

First: CC(=O)c1ccc(-n2c(CCl)nc3ccccc3c2=O)cc1
Second: CC(=O)c1nc2c(OCc3ccccc3)cccc2n1C
The melting point of the first is higher: 180 to 181 °C for the first, 102 to 104 °C for the second.

First: O=C1CCC(c2ccc(N=C=S)cc2)=NN1
Second: Cc1ccc(SCC2=NOCN2)cc1
The melting point of the first is higher: 182 to 183 °C for the first, 85 °C for the second.

Compared with `COc1ccc(C=C(C#N)C(=O)O)cc1OC`, `COC(=O)NC=Cc1ccc(OCC2CO2)c(OC)c1` (configuration not stated) is lower in melting point: 206 °C for the first, 122 to 123 °C for the second.

Compared with `CCOC(=O)N1CCC(C#N)(NC(=O)C(CC2CCCCC2)NC(=O)N2CCOCC2)CC1` (configuration not stated), `Brc1cnc(N2CCCC2)c(OCC2CCCC2)n1` is lower in melting point: 140 to 143 °C for the first, 54 to 55 °C for the second.

First: O=c1[nH]c2cc(Cl)cc(Cl)c2c(=O)n1Cc1cccc(Cl)c1
Second: O=C1COc2c(cc(Cl)cc2C(=O)NC2CCN(Cc3ccccc3)CC2)N1
The melting point of the first is higher: 276 to 279 °C for the first, 203 to 206 °C for the second.

Compared with `CN(CN1C(=O)c2ccccc2C1=O)c1c(S(=O)C(F)(F)F)c(C#N)nn1-c1c(Cl)cc(C(F)(F)F)cc1Cl` (configuration not stated), `CCOC(=O)c1cnn2c(C(F)(F)F)cc(-c3ccc(C(F)(F)F)cc3)cc12` is lower in melting point: 163 °C for the first, 130 °C for the second.

Compared with `N#Cc1ccc(C(=O)N2CCC3(CC2)C(=O)NC(=O)N3Cc2ccccc2)cc1`, `N[C@@H](Cc1ccc(OCc2ccccc2)cc1)C(=O)NCCN1CCCCC1` is lower in melting point: 207 to 209 °C for the first, 58 to 61 °C for the second.

First: N#CNC=NCc1ncc(C(F)(F)F)cc1Cl
Second: Cc1nc2cc(C(F)(F)F)ccc2n1-c1ccc(OC(C)CCC(=O)O)cc1 (configuration not stated)
The melting point of the first is higher: 106 to 108 °C for the first, 67 to 68 °C for the second.

Compared with `O=C(C=CC(=O)OC(Cl)C(Cl)(Cl)Cl)OC(Cl)C(Cl)(Cl)Cl` (configuration not stated), `COC(=O)c1ccc(NC(=O)/C=C/c2c(C)noc2-c2ccccc2)cc1` is higher in melting point: 144 °C for the first, 174 to 175 °C for the second.

Compared with `NC(=O)c1cc(-c2ccncc2)nnc1Cl`, `CC1(C)CC(=O)Nc2cc3nc(-c4ccncc4)[nH]c3cc21` is lower in melting point: greater than 300 °C for the first, 201 to 202 °C for the second.

Compared with `CC(=O)c1cc(C)ccc1OCCCN1CCC(c2noc3cc(F)ccc23)CC1`, `O=C(NCCN1CCC(Nc2nc3ccccc3n2Cc2ccc(F)cc2)CC1)c1ccc(F)cc1` is higher in melting point: 92 to 93 °C for the first, 194 °C for the second.

First: CC12CCC(OC(=O)c3ccc(N)cc3)CC1=CCC1C2CCC2(C)C(=NO)CCC12 (configuration not stated)
Second: C#CC1(O)CCC2C3CCC4=CC(=O)CCC4C3C(=CF)CC21CC (configuration not stated)
The melting point of the first is lower: 165 to 168 °C for the first, 169 to 180 °C for the second.

Compared with `C=Cc1c(F)c(N2CCN(CC)CC2)c(F)c2c1c(=O)c(C(=O)O)cn2C1CC1`, `CCN1CCN(c2cc3c(cc2F)c(=O)c(C(=O)O)cn3CC)CC1` is higher in melting point: 198 to 200 °C for the first, 251 to 253 °C for the second.

First: O=C(NCc1ccccn1)c1[nH]c2ccc(Cl)cc2c1S(=O)(=O)c1ccccc1
Second: Nc1cccc(Cn2c(-c3ccc(O)cc3)ccc2-c2ccccc2Cl)n1
The melting point of the first is higher: 250 to 251 °C for the first, 170 to 172 °C for the second.

Compared with `C[C@@H](O)c1nccc(N2CCN(Cc3ccccn3)CC2)n1`, `O=C(C=Cc1ccc(C(=O)O)cn1)NCCCCN1CCN(C(c2ccccc2)c2ccccc2)CC1` is higher in melting point: 68 to 70 °C for the first, 214 to 216 °C for the second.

First: O=[N+]([O-])c1cnc(-c2nc3ccccc3[nH]2)n1CCO
Second: Cn1nnnc1-c1cnc2ccccc2c1O
The melting point of the first is lower: 217 to 219 °C for the first, 318 to 320 °C for the second.

First: O=[N+]([O-])c1cc(Br)cc(Br)c1
Second: O=[N+]([O-])c1cccc(Br)c1CBr
The melting point of the first is higher: 102 to 104 °C for the first, 61.5 to 63 °C for the second.

`CCOC(=O)CCCCCCCC1CC2=C(C1)C(=O)C(OC)=C(OC)C2=O` and `CCCCCCCC/C=C\CCCCCCCC(=O)OCC1(CO)CCC(=O)O1` (configuration not stated) cannot be ordered by melting point: 39 to 40 °C for the first, 38.5 to 39.5 °C for the second.

First: CCOC(=O)c1oc(I)nc1C
Second: CCOC(=O)c1c(Cl)nc2cc(F)c(C)cc2c1CCl
The melting point of the first is lower: 110 to 112 °C for the first, greater than 250 °C for the second.

Compared with `CCOC(=O)c1ncn2c1CN(C)C(=O)c1c(Br)cccc1-2`, `CCOC(=O)c1cn(-c2nccs2)c2nc(N3C[C@@H](NC)[C@H](OC)C3)ccc2c1=O` (relative stereo) is lower in melting point: 214 to 215 °C for the first, 73 to 76 °C for the second.

Compared with `CC(C)(C)C(O)Cn1c(-c2ccccc2[N+](=O)[O-])nc2ccccc21` (configuration not stated), `O=[N+]([O-])c1ccc2c(c1)C(c1ccccc1F)=NCc1nc(CO)cn1-2` is higher in melting point: 192 to 193 °C for the first, 230 to 231 °C for the second.

First: O=C(NCC12CC3CC(CC(C3)C1)C2)c1cccc([N+](=O)[O-])c1Cl
Second: CCOC(=O)C1=C(C)NC2=C(C(=O)N(CCO)C2)C1c1ccccc1[N+](=O)[O-] (configuration not stated)
The melting point of the first is lower: 185 °C for the first, 210 to 211 °C for the second.

First: CC(=O)NCCN1CCCc2ccc(C)cc21
Second: COC(=O)c1c(C2CC2)nn2ccc3c(c12)CCO3
The melting point of the first is lower: 99 °C for the first, 170 to 172 °C for the second.

First: OCc1cn(-c2ccc(SC(F)(F)F)cc2)cn1
Second: NS(=O)(=O)c1ccc(-n2nc(C(F)(F)F)cc2-c2ccc(-c3ncco3)cc2)cc1
The melting point of the first is lower: 145 to 147 °C for the first, 215 to 217 °C for the second.

First: COc1ccc(-c2cc(C)c3occc3c2)cc1
Second: CN(C(=O)OC(C)(C)C)c1cc(Oc2ccc(-c3ccc(O)cc3)cc2)ccc1N
The melting point of the first is lower: 82 to 83 °C for the first, 89 to 91 °C for the second.

First: COc1ccc(CN2C(=O)CC2COS(C)(=O)=O)c(OC)c1 (configuration not stated)
Second: COc1ccc2ncn(/C=C/C(=O)O)c(=O)c2c1
The melting point of the first is lower: 71 to 72 °C for the first, 298 to 299 °C for the second.

First: N#Cc1c[nH]c(-c2ccccc2F)c1
Second: N#Cc1cnc2cc(Cl)c([N+](=O)[O-])cc2c1Nc1ccc(F)c(Cl)c1
The melting point of the first is lower: 158 to 160 °C for the first, 259 to 263 °C for the second.

First: N#Cc1ccc(OCc2ccsc2)cc1OC(CCC(=O)O)c1c(F)cccc1Cl (racemic)
Second: COC(=O)Cc1cccc(C(=O)c2ccc(O)cc2)c1
The melting point of the first is higher: 128 to 130 °C for the first, 111 to 113 °C for the second.

Compared with `CC(C)(C)C(OC(=O)Cl)=C(Oc1ccc(Cl)cc1)n1cncn1`, `CCC(C)(C)N1C(=O)C(=O)N(c2ccc(C#N)cc2)C1=S` is higher in melting point: 159 to 161 °C for the first, 173 to 174 °C for the second.

First: COc1ccc(-c2cc3cc(F)c(F)cc3[nH]2)cc1NCc1cccs1
Second: COc1cc2nc(Cl)nc(-c3cccc([N+](=O)[O-])c3)c2cc1OC
The melting point of the first is lower: 190 to 192 °C for the first, 228 to 230 °C for the second.

First: CS(=O)CC(=O)c1cc(C(C)(C)C)c(O)c(C(C)(C)C)c1 (configuration not stated)
Second: CCCc1c(OCCCCc2ccc3cc(OC)c(OC)cc3c2)ccc(C(=O)O)c1O
The melting point of the first is lower: 144 to 145 °C for the first, 147 to 148 °C for the second.

First: CON=C(C(=O)O)c1cccs1
Second: CCOC(=O)CCc1cccc(N(C)C)c1
The melting point of the first is higher: 106 °C for the first, 94 to 98 °C for the second.

First: O=C(NC1CC1)c1ccc(CCN2CC=C(c3c[nH]c(-c4ccc(F)cc4)c3-c3ccncc3)CC2)cc1
Second: Cc1cc(-c2c(-c3ccc(S(N)(=O)=O)cc3)cnn(-c3ccc(F)cc3)c2=O)ccc1F
The melting point of the first is higher: 226 to 228 °C for the first, 202 to 204 °C for the second.

Compared with `CCc1cc(C#N)ccc1N=C1OCC(C)(C)N1C1CCCC1`, `CN1C(=O)CC2(CCc3cc4ccccc4n3C2)C1=O` (configuration not stated) is higher in melting point: 112 to 114 °C for the first, 158 to 164 °C for the second.

Compared with `CN(CC(O)C(O)C(O)C(O)CO)C(=O)c1c(I)c(N)c(I)c(N)c1I` (configuration not stated), `CN(CCc1cn(C(=O)OCc2ccccc2)c2ccc([N+](=O)[O-])cc12)C(=O)C(F)(F)F` is lower in melting point: 110 °C for the first, 107 to 109 °C for the second.

First: CCN1C(=O)C(C(=O)Nc2cccc(C(=O)Nc3ccccc3)c2)c2cc(C(=O)c3ccccc3)ccc21 (configuration not stated)
Second: CN1c2ccccc2Sc2cc(C=CC3(C=Cc4ccc5c(c4)Sc4ccccc4N5C)C=CC(c4ccccc4)=CC3)ccc21 (configuration not stated)
The melting point of the first is lower: 129 to 135 °C for the first, 380 °C for the second.

First: CN(C)C=Nc1c(Cl)cc(N=Cc2cc(Cl)cc(Cl)c2)cc1Cl
Second: NS(=O)(=O)N1CCC(C2c3ncc(Br)cc3CCc3cc(Cl)cc(Cl)c32)CC1 (single isomer, unassigned; (+))
The melting point of the first is higher: 194 to 195 °C for the first, 133 to 134 °C for the second.

Compared with `O=S1(=O)N=C(O)C(O)=N1`, `CCCC(=NOCC)C1=C(O)CC(c2cc(C3CCOC3)no2)CC1=O` (configuration not stated) is lower in melting point: 171 to 172 °C for the first, 85 °C for the second.

First: Cc1nn(C)c2c1N=C(C(C)C)N1CC(C)N=C21 (configuration not stated)
Second: COC12CC(c3nnc(-c4cncc(Br)c4)o3)CN(C)C1Cc1cn(C)c3cccc2c13 (configuration not stated)
The melting point of the first is lower: 96 to 97 °C for the first, 183 to 186 °C for the second.

Compared with `CS(=O)(=O)c1ccc(-c2oc(CO)nc2-c2ccc(F)cc2)cc1`, `CCc1nc2cc(C#N)c(Cl)cc2n1-c1ccc(CCNC(=O)NS(=O)(=O)c2ccc(C)cc2)cc1` is higher in melting point: 156 to 157 °C for the first, 219 to 224 °C for the second.

First: O=C(O)c1c(-c2ccc(F)c(Cl)c2)c2ccccc2n1Cc1cc2c(cc1Cl)OCO2
Second: O=C(O)C[C@H]1CCCCN1C(=O)C=Cc1c(-c2ccccc2)nn2ccccc12
The melting point of the first is higher: 210 to 211 °C for the first, 165 to 166 °C for the second.

Compared with `N=C(NO)c1ccc(-c2ccc(Br)o2)cc1`, `O=C(O)C(Cl)(Cl)CCCCCCCCCCCCBr` is lower in melting point: 116 to 117 °C for the first, 59 to 60 °C for the second.
